# Results as given in patent US4806554A, “Pyrazol and indazolpyridinamines” (Hoechst-Roussel Pharmaceuticals, Inc., priority 1988, dated 1989).
# Where two headings read alike, the source gives them in different places.
# Legend:
# [1] = test system: tetrabenazine-induced ptosis in mice; assay: Prevention of tetrabenazine-induced ptosis in mice (antidepressant activity); format: in vivo; settings: Mus musculus, po, read-out: ED50 (antidepressant activity)
# Source text: The test method and results are described below.
# PREVENTION OF TETRABENAZINE-INDUCED PTOSIS IN MICE
# Tetrabenazine (TBZ) induces behavioral depression with concomitant ptosis in mice similar to reserpine. Antidepressant compounds, both monoamineoxidase inhibitors and tricyclics, are known to prevent or antagonize these effects and the degree of antagonism correlates with clinical efficacy. The prevention of TBZ-induced ptosis in mice is used as a preliminary screen for possible antidepressant activity. The method used in this invention is as follows:
# Male mice weighing 20 to 30 grams are used in test groups of five subjects. All compounds are dissolved or suspended with a suitable surfactant in distilled water and administered in volumes of 10 ml/kg of body weight. TBZ solution is made from the methanesulfonate salt and the concentration is adjusted to enable administration of 60 mg/kg of base by intraperitoneal (i.p.) injection.
# The pretreatment time is measured from the time of dosing to observation. Therefore, when a 30-minute pretreat is utilized, drug and TBZ are given simultaneously. A control group received solvent and TBZ at intervals identical to drug group. For a primary screen, the drug is administered i.p. and a group size of five is utilized. Eight animals/group are used for a dose range.
# The total score for each group of five in a primary screen will, therefore, be from 0 to 20 and these scores are used as indications of drug activity.
# The vehicle control group score is used as a determinant of the validity of each test. […] The calculation of percent inhibition of ptosis is: [formula]
# [2] = test system: 2-phenyl-1,4-benzoquinone-induced writhing in mice; assay: 2-phenyl-1,4-benzoquinone-induced writhing (PQW) test in mice (analgesia); format: in vivo; settings: s.c.
# Source text: Compounds I of the present invention are also useful as analgesic agents due to their ability to alleviate pain in mammals. […] Exptl. Biol. Med., 95, 729(1957)] and in modified Haffner's analgesia.
# [3] = test system: sensitivity of mice to pressure stress (artery clip on tail); assay: Modified Haffner's analgesia (artery clip on tail); format: in vivo, mice (Charles River; settings: Mus musculus, sc; at peak time of drug activity; male CD-1 mice
# Source text: The latter assay is used to evaluate analgesic activity by measuring drug-induced changes in the sensitivity of mice to pressure stress by placing an artery clip (21/2 inches long) on their tail. The procedure used is a modification of the test developed by Haffner, Dtsch. Med. Wschr. 55, 731 (1929), and it is described below:
# Male mice (Charles River, CD-1) from 18-30 grams are used for the test. An artery clip is applied to the root of the tail of a mouse (approximately 1/2 inch from the body) to induce pain. The animals quickly responds to this noxious stimuli by biting the clip or the location of the clip. This reaction time, the interval between stimulus onset and response, is recorded on 1/10 second increments by a stop watch.
# For a time response, the screening dose (25 mg/kg) is administered subcutaneously (10 ml/kg) to the animal receiving food and water ad libitum before testing. […]
# The cut-off time (CO) is determined by taking the (x) average +3 standard (SD) deviation of the combined response latencies of the control mice in all time periods.
# Any reaction time, in subsequent drug tests, which is greater than the CO (for the same time period) therefore exceeds 99% of normal Gaussian distribution and is called "positive response" indicative of analgesic activity. […] The ED50 is determined at the peak time of drug activity. […] ED50 's are calculated using computer analysis.
smiles,measurement,setting,value
"CNCCCN1c2ccccc2CCc2ccccc21 [Desipramine, reference compound]",ED50,[1],2.3 mg/kg
O=C(O)/C=C\C(=O)O.c1ccc2c(c1)cnn2Nc1ccncc1 [N-(4-Pyridinyl)-1H-indazol-1-amine maleate],PQW (% Inhibition of writhing),[2]; at 0.7 mg/kg,50%
same,ED50,[3],10.4 mg/kg
same,ED50,"[1]; TBZ 60 mg/kg i.p., male mice",2.7 mg/kg
CCCN(c1ccncc1)n1ncc2ccccc21.O=C(O)/C=C\C(=O)O [N-(Propyl)-N-(4-pyridinyl)-1H-indazol-1-amine maleate],PQW (% Inhibition of writhing),[2]; at 20 mg/kg,62%
same,ED50,"[1]; TBZ 60 mg/kg i.p., male mice",8.5 mg/kg
"CC(C)=CCN1CCC2(C)c3cc(O)ccc3CC1C2C (centres unmarked) [Pentazocin, reference compound]",PQW (% Inhibition of writhing),[2]; at 1.3 mg/kg,50%
same,ED50,[3],3.9 mg/kg
